Assay results: the supplement of paper PMC10307832

Key:
Assay in all cases: relative viability (nuclei count vs DMSO), 5 days (fraction); higher = more cells survive
[1] = compound: CN1CCN(CC1)C2=CC(=C(C=C2)NC3=NC=C4C(=N3)N(C5=CC=CC=C5C(=O)N4C)C)OC [XMD8-85] + Cc1nc(Nc2ncc(C(=O)Nc3c(C)cccc3Cl)s2)cc(N2CCN(CCO)CC2)n1 [Dasatinib] (partner 0.075 µM)
Summary of the method: (§1)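 Five library-drug doses in √10 steps were combined with a fixed anchor-drug dose, or a single drug was given alone, by pin tool to lung cancer cell lines in 1536-well plates the day after seeding. Nuclei were stained and counted after 5 days. Relative viability is the nuclei count in treated wells over that in vehicle wells, taken as the median of duplicate plates.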

[2] = compound: O=C(O)C(Cc1ccccc1[N+](=O)[O-])=NNc1nc(-c2ccc(Cl)c(Cl)c2)cs1 (mixture of isomers) [4EGI-1] + CC(C)C[C@H](NC(=O)[C@H](Cc1ccccc1)NC(=O)c1cnccn1)B(O)O [Bortezomib] (partner 0.002 µM)
Summary of the method: as §1

[3] = compound: O=C(O)C(Cc1ccccc1[N+](=O)[O-])=NNc1nc(-c2ccc(Cl)c(Cl)c2)cs1 (mixture of isomers) [4EGI-1] + Cc1cc(Nc2cc(N3CCN(C)CC3)nc(Sc3ccc(NC(=O)C4CC4)cc3)n2)n[nH]1 [Tozasertib] (partner 0.1 µM)
Summary of the method: as §1

[4] = compound: O=C(O)C(Cc1ccccc1[N+](=O)[O-])=NNc1nc(-c2ccc(Cl)c(Cl)c2)cs1 (mixture of isomers) [4EGI-1] + Nc1nc2[nH]cc(CCc3ccc(C(=O)N[C@@H](CCC(=O)O)C(=O)O)cc3)c2c(=O)[nH]1 [Pemetrexed] (partner 0.2 µM)
Summary of the method: as §1

Cell Line	relative viability ([1]; first compound 0.08 µM)	relative viability ([1]; first compound 0.253 µM)	relative viability ([1]; first compound 0.8 µM)	relative viability ([1]; first compound 2.53 µM)	relative viability ([1]; first compound 8 µM)	relative viability ([2]; first compound 0.5 µM)	relative viability ([2]; first compound 1.581 µM)	relative viability ([2]; first compound 5 µM)	relative viability ([2]; first compound 15.81 µM)	relative viability ([2]; first compound 50 µM)	relative viability ([3]; first compound 0.5 µM)	relative viability ([3]; first compound 1.581 µM)	relative viability ([3]; first compound 5 µM)	relative viability ([3]; first compound 15.81 µM)	relative viability ([3]; first compound 50 µM)	relative viability ([4]; first compound 0.5 µM)	relative viability ([4]; first compound 1.581 µM)	relative viability ([4]; first compound 5 µM)	relative viability ([4]; first compound 15.81 µM)	relative viability ([4]; first compound 50 µM)
NCI-H520	0.199	0.208	0.182	0.216	0.159	0.838	0.521	0.999	0.536	0.108	0.47	0.496	0.499	0.385	0.371	0.674	0.704	0.677	0.655	0.123
NCI-H647	0.197	0.141	0.16	0.196	0.122	1.08	1.08	1.13	0.533	0.748	0.262		0.35	0.199	0.133	0.198	0.179	0.206	0.156	0.087
201T		0.641	0.55	0.616	0.529	1.15	1.05	1.08	1.09	1.03	1.01	0.91	0.905	0.771	0.475	0.338	0.368	0.387	0.334	0.348
COR-L 105	0.336	0.364	0.292	0.268	0.171	0.876	0.592	0.725	0.424	0.252	0.369	0.343	0.343	0.286	0.366	1.2	0.996	1.14	0.905	0.98
IA-LM						0.873	0.707	0.552	0.144	0.0723										
LCLC-97TM1		0.813	0.856	1.01	0.87	0.589		0.942	0.271	0.277	0.231	0.184	0.215	0.219	0.102	0.181		0.195	0.165	0.114
NCI-H1944	0.203	0.228	0.204	0.223	0.203						0.262		0.241	0.192	0.202	0.683		0.668	0.586	0.331
EPLC-272H	0.33	0.253	0.4	0.501	0.25	1.01	0.686	0.898	0.618	0.497	0.288		0.297	0.172	0.193	0.372	0.304	0.322	0.29	0.245
NCI-H2342	0.296	0.316	0.32	0.32	0.331						0.549	0.598	0.655	0.544	0.511	0.884	0.723	0.813	0.978	0.702
NCI-H1648											0.604	0.623	0.532	0.466	0.314	0.728	0.782	0.745	0.643	0.689
NCI-H1437	0.372	0.364	0.398	0.394	0.282	0.604	0.632	0.442	0.187	0.119	0.416	0.378	0.399	0.318	0.175	0.335	0.312	0.313	0.271	0.191
LU99A	0.477	0.675	0.61	0.688	0.388	1.28		1.06	0.873	0.191	0.258	0.227	0.298	0.28	0.208	0.177	0.179	0.166	0.248	0.154
NCI-H1993	0.522	0.518	0.648	0.744	0.744	1.19	0.899	0.988	0.689	0.516	0.552	0.627	0.563	0.511	0.492	0.529	0.569	0.541	0.518	0.481
NCI-H838	0.397	0.277	0.281	0.28	0.191	0.865		0.82	0.612	0.167	0.261		0.263	0.235	0.172	0.247	0.255	0.244	0.225	0.174
NCI-H322M	0.246	0.249	0.289	0.232	0.19	1.18	1.21	1.18	0.991	1.09	0.457		0.509	0.469	0.29	0.576		0.643	0.618	0.377
NCI-H3122	0.933		0.984	0.861	0.794	1.07	0.975	0.918	1.06	0.352	0.418		0.387	0.334	0.116	0.196	0.192	0.189	0.224	0.175
NCI-H1703						0.403	0.363	0.446	0.365	0.201										
HCC-15	0.576	0.632	0.614	0.656	0.417	1.09	1.12	1.06	0.951	0.801	0.331	0.377	0.5	0.308	0.155	0.231	0.22	0.204	0.198	0.212
ChaGo-K-1	0.449		0.613	0.57	0.577	0.995		0.954	0.659	0.434	0.209	0.208	0.212	0.209	0.208	0.26	0.266	0.269	0.267	0.265
